Source: publication PMC10500703 (Journal of medicinal chemistry, 2021)

How the values were obtained:
Format in all cases: cell-based, Mycobacterium tuberculosis
Mtb ∆cyd = test system: Mtb ∆cyd
[1] = test system: Mtb InhA-OE (H37Rv-LP:fabG1/inhA-c-15t)
Mtb EthA C253R = test system: Mtb EthA C253R

Compound	MIC (Mtb ∆cyd)	MIC [1]	MIC (Mtb EthA C253R)
3-(1,3-bis(4-chlorophenyl)-1H-pyrazol-5-yl)-N-(methylsulfonyl)propanamide [Compound 8]	4 µM	0.24 µM	–
CCc1cc(C(N)=S)ccn1 [ETH, Ethionamide]	–	–	>125 µM
